Data on 26 sequences can be found in article PMC4557752, “EST-based in silico identification and in vitro test of antimicrobial peptides in Brassica napus” (BMC Genomics, 2015).

The test system of one assay is E. coli ATCC2592. Briefly: radial diffusion assay against E. coli (G- strain). It is filed as cell-based, Escherichia coli. Details: G- strain halo diameter: unit not given here. The note with it: for G- strain halo diameter: radial diffusion, E. coli ATCC2592 approx 2 x 10^6 cfu/mL in 1 % agarose underlay gel, 3.5 mm holes, 100 μL AMP sample, 37 °C 12 h, diameter of clear zone, performed in triplicate, '-' = no zone. As for the experimental part:
(§1) Purified His-EDDIE-AMPs inclusion bodies were refolded by rapid 1:50 dilution in an optimized refolding buffer (500 mM NaCl, 20 mM Tris, 2 mM EDTA, 5 % glycerol, 10 mM DTT, 0.01 % Tween-20, pH 7.5) and incubated at an appropriate temperature without stirring. During refolding, EDDIE restored its correct conformation and self-cleaved at the specific sites, releasing AMPs from the fusion bodies. Renatured protein solution was then clarified by centrifugation at 15,000 x g at 4 °C for 30 min. The insoluble sample was removed by filtering through a 0.45 μm membrane, leaving the AMPs in the supernatant. The supernatants were transferred to a Ni-NTA His-bind column for purification.
(§2) The antimicrobial activities of recombinant AMPs were detected using a radial diffusion assay. E. coli ATCC2592 and M. luteus ACCC11001 were grown on the mid-logarithmic phase and washed. Approximately 2 × 10^6 cfu/mL bacteria were incorporated into a thin (1.2 mm) agarose underlay gel containing 1 % (w/v) agarose. Holes with 3.5 mm diameter were punched into the solidified agarose and were filled with 100 μL of AMP sample. After the plates were incubated at 37 °C for 12 h, the diameter of the clear zone surrounding each well was measured to evaluate the antimicrobial activity. The refolding buffer was used as negative controls. The above assays were performed in triplicate.

For another assay, the system named is M. luteus ACCC11001. Briefly: radial diffusion assay against M. luteus (G+ strain). It is filed as cell-based, Micrococcus luteus. Set-up: G+ strain halo diameter: unit not given here. The following applies: for G+ strain halo diameter: radial diffusion, M. luteus ACCC11001 approx 2 x 10^6 cfu/mL in 1 % agarose underlay gel, 3.5 mm holes, 100 μL AMP sample, 37 °C 12 h, diameter of clear zone, performed in triplicate, '-' = no zone. As for the experimental part:
as §1, §2

The test system of the next assay is S. sclerotiorum. Kind of assay: antifungal radial diffusion assay on potato plates. It counts as cell-based, Sclerotinia sclerotiorum. The note with it: PDA/potato plates, 200 μL sample beside the fungi, 22 °C 72 h; refolding buffer control. As for the experimental part:
as §1
The antifungal activity of the purified products was assayed using an ultra-sensitive radial diffusion method on thin potato plates (200 g potato, 20 g glucose, 15–20 g agar powder, 1 L double-distilled water) seeded with filamentous fungi. Briefly, 9-cm plates were poured with an underlay potato medium, and S. sclerotiorum on a 1-cm diameter potato medium were seeded on the center of the plates, which were then incubated at 22 °C until hypha grew to 2 cm in diameter. Two hundred microliters of the test sample and negative control (refolding buffer) was placed beside the filamentous fungi, and the plates were incubated at 22 °C for 72 h; the size of the clear area around the filamentous fungi was then measured.

“IQCGKFFSCSEINTCCCLFKCGKYYFGWGCCPLEASTCCDDNTSCCP [Bn22, recombinant B. napus AMP candidate]”: the “G- strain halo diameter” value with E. coli ATCC2592 is 0.433.

Turning to “GKPSGSEKDKDKKKQPITRSARAGLQFPVGRVHRLLK [Bn5, recombinant B. napus AMP candidate, 37 aa]”, the “G+ strain halo diameter” value in the assay with M. luteus ACCC11001 was found to be 2.2. In addition, the “G- strain halo diameter” value in the assay on E. coli ATCC2592 is 1.711.

“NQCGQFVSGALINTCCCLFKCG [Bn23, recombinant B. napus AMP candidate, 22 aa]”: in the assay with M. luteus ACCC11001, the “G+ strain halo diameter” value was found to be 1.233. The “G- strain halo diameter” value with E. coli ATCC2592 worked out at 0.756.

Take “GRKAGGPKNKSVSKSIKAGLQFPVGRITRFLKKGRYAQRLGGERREIRLLTKPE [Bn1, recombinant B. napus AMP candidate, 54 aa]”: the “G+ strain halo diameter” value in the assay on M. luteus ACCC11001 stood at 1.633. Further, in the assay on E. coli ATCC2592, the “G- strain halo diameter” value is 1.256.

For “EQCGRRRVERCSRMAVLCEFGWCGDTEPYCKQTGCQSQCGG [Bn3, recombinant B. napus AMP candidate, 41 aa]”, in the assay with M. luteus ACCC11001, the “G+ strain halo diameter” value is listed as 1.811. For the same sequence, the “G- strain halo diameter” value with E. coli ATCC2592 turned out to be 1.867.

With “KECEERSRQSRSFSVICKYDYACQNHCINLEKADGGQCNSRSPTAKCICYFQC [Bn8, recombinant B. napus AMP candidate, 53 aa]”, the “G+ strain halo diameter” value in the assay with M. luteus ACCC11001 is reported as 2.056. The “G- strain halo diameter” value with E. coli ATCC2592 is recorded as 1.656.

Take “ALTCGTVNSNVAPCIGYITQGGPLPGACCTG [Bn27, recombinant B. napus AMP candidate, 31 aa]”: the “G+ strain halo diameter” value with M. luteus ACCC11001 came out at 2.044. In addition, the “G- strain halo diameter” value in the assay with E. coli ATCC2592 is listed as 1.756.

Consider “CAPNHCCSQFGYCGTNDAHCGAGCKS [Bn29, recombinant B. napus AMP candidate]”, for which the “G- strain halo diameter” value in the assay on E. coli ATCC2592 stood at 1.7.

On to “VVCDKSYTCPDKSTCCCVSESKGKCDSWGCCPFESATCCENGSSCCP [Bn10, recombinant B. napus AMP candidate, 47 aa]”, for which the “G+ strain halo diameter” value with M. luteus ACCC11001 is given as 1.2. Also, the “G- strain halo diameter” value in the assay with E. coli ATCC2592 amounted to 1.722.

Consider “YVCTRVDCSGRCKGRCNKSSRPNLCLRACNSCCFRCNCVPPPGTHGNHHLRPCYASITT [Bn14, recombinant B. napus AMP candidate, 59 aa]”, for which the “G+ strain halo diameter” value in the assay with M. luteus ACCC11001 is given as 2.489. Moreover, in the assay with E. coli ATCC2592, the “G- strain halo diameter” value is recorded as 2.589.

Turning to “NWCGGKCEVRCKDVGMNDRCLKYCGICCKECKC [Bn20, recombinant B. napus AMP candidate, 33 aa]”, the “G+ strain halo diameter” value with M. luteus ACCC11001 is recorded as 1.089. The “G- strain halo diameter” value in the assay on E. coli ATCC2592 is reported as 1.489.

“QNCGCAPNLCCSQFGYCGSTDAYRDWLP [Bn25, recombinant B. napus AMP candidate, 28 aa]”: the “G+ strain halo diameter” value in the assay on M. luteus ACCC11001 is 0.367. Besides, in the assay with E. coli ATCC2592, the “G- strain halo diameter” value is reported as 1.567.

For “RVCNTQSHHYRGPCWRNHNCAMVCRTEGFSGGDCVGIPRRCYCTKRC [Bn16, recombinant B. napus AMP candidate, 47 aa]”, the “G+ strain halo diameter” value in the assay on M. luteus ACCC11001 was found to be 1.322.

With “PPTQNPSMAPPTQNPYGQPMAPPTQNPYGQPMAPP [Bn19, recombinant B. napus AMP, 35 aa; new member of the proline-rich antimicrobial peptide family, similar to SP-B]”, in the assay on M. luteus ACCC11001 (radial diffusion assay, M. luteus, refolding buffer as negative control), the “antimicrobial activity to Gram positive strains (in words)” value is recorded as “highest activities”. Moreover, the “G+ strain halo diameter” value with M. luteus ACCC11001 turned out to be 3.022. Further, the “antimicrobial activity to Gram negative strains (in words)” value in the assay with E. coli ATCC2592 (radial diffusion assay, E. coli, refolding buffer as negative control) is listed as “highest activities”. The “G- strain halo diameter” value in the assay with E. coli ATCC2592 was 3.011.

“AVTCNNVVGDLYPCLSYVMRGGNAPSTNCCNGVRTLNSQAQTTADRQSVCRCIKNA [Bn21, recombinant B. napus AMP candidate, 56 aa]”: in the assay with M. luteus ACCC11001, the “G+ strain halo diameter” value is listed as 1.867. Besides, the “G- strain halo diameter” value in the assay on E. coli ATCC2592 was found to be 1.711.

As for “EQCGRQAGGALCPNGLCCSNLAGAAIPNRIANRPVARASVAA [Bn2, recombinant B. napus AMP candidate, 42 aa]”, in the assay with M. luteus ACCC11001, the “G+ strain halo diameter” value came to 1.067. Besides, the “G- strain halo diameter” value in the assay with E. coli ATCC2592 is reported as 1.189.

Consider “RMCETSSQLFNGPCLSTNCANICQNEGFPDGDCKGFRLRCICNRPC [Bn13, recombinant B. napus AMP candidate, 46 aa]”, for which the “G+ strain halo diameter” value in the assay with M. luteus ACCC11001 worked out at 1.722. Besides, in the assay with E. coli ATCC2592, the “G- strain halo diameter” value amounted to 2.222.

As to “CASGVGCSQYGYCGNGPDYCG [Bn28, recombinant B. napus AMP candidate, 21 aa]”, the “G+ strain halo diameter” value in the assay on M. luteus ACCC11001 is recorded as 1.089. For the same sequence, the “G- strain halo diameter” value in the assay on E. coli ATCC2592 came to 0.867.

As for “LQFPVGRISRYLKKGRYAIRYGAGAP [Bn30, recombinant B. napus AMP candidate, 26 aa]”, the “growth of the filamentous fungal strain S. sclerotiorum (in words)” value with S. sclerotiorum is recorded as “grow normally”. The “G+ strain halo diameter” value in the assay on M. luteus ACCC11001 is listed as 1.4. Further, in the assay with E. coli ATCC2592, the “G- strain halo diameter” value was 1.289.

“ALTCGTVNSNVARALAILPRGDRCPERAAPAKAN [Bn26, recombinant B. napus AMP candidate, 34 aa]”: in the assay with M. luteus ACCC11001, the “G+ strain halo diameter” value worked out at 1.489. Also, the “G- strain halo diameter” value in the assay on E. coli ATCC2592 came to 1.533.

Turning to “KTCCPTTTARRIFDSCYGPSVPLTFCARISGCHLFPQSTTCPPEFP [Bn18, recombinant B. napus AMP candidate, 46 aa]”, in the assay with M. luteus ACCC11001, the “G+ strain halo diameter” value came out at 0.107. The “G- strain halo diameter” value in the assay with E. coli ATCC2592 stood at 1.978.

“RCREASRKKVCYRAGGSCCAKCQCVPPGTSGNTASCPCYANLRTHGNKLKCP [Bn4, recombinant B. napus AMP candidate, 52 aa]”: the “G+ strain halo diameter” value with M. luteus ACCC11001 is on record as 2.167. The “G- strain halo diameter” value with E. coli ATCC2592 was 2.122.

Take “KTHEEKSKTYRRLCVDETGCNHACIFNEHFAGGHCRHLECFC [Bn17, recombinant B. napus AMP candidate, 42 aa]”: the “G+ strain halo diameter” value in the assay with M. luteus ACCC11001 is given as 0.178. For the same sequence, the “G- strain halo diameter” value with E. coli ATCC2592 was 0.467.

Take “RTCESRSHRFKGPCVSENNCANVCHT [Bn24, recombinant B. napus AMP candidate, 26 aa]”: in the assay with M. luteus ACCC11001, the “G+ strain halo diameter” value is listed as 0.967.

For “NICCSQYGYCGTTADYCSPDNNCQSNC [Bn15, recombinant B. napus AMP candidate, 27 aa]”, the “G+ strain halo diameter” value in the assay with M. luteus ACCC11001 is listed as 0.944.

As for “AITCGTVTSSLAPCATLSSSGGEMPPPLCGGCAGVKKLNGMAQTTADRQ [Bn7, recombinant B. napus AMP candidate, 49 aa]”, the “G- strain halo diameter” value with E. coli ATCC2592 is 1.311.
